Data on 61 compounds can be found in BindingDB's records for doi:10.7270/Q2H993J6 (Pcmd, 2008).

*1 amine or outer side, *2 acyl side, *3 side chain or, on linkers, in order; H or OH if unused. Where a SMILES comes first, the peptide text is derived from it. The star is where a group is joined. Cbz = O=C(OCc1ccccc1)*; CO = O=C([*:1])[*:2]

The test addresses Coagulation factor XI (Homo sapiens, UniProt P03951). Briefly: factor XIa inhibitor concentration-response – biochemical, hits from 1536-well screen, dose response (AID 846). Conditions: pH 7.4; 23 °C.

Sequence of Coagulation factor XI (P03951 19-387 limits assumed): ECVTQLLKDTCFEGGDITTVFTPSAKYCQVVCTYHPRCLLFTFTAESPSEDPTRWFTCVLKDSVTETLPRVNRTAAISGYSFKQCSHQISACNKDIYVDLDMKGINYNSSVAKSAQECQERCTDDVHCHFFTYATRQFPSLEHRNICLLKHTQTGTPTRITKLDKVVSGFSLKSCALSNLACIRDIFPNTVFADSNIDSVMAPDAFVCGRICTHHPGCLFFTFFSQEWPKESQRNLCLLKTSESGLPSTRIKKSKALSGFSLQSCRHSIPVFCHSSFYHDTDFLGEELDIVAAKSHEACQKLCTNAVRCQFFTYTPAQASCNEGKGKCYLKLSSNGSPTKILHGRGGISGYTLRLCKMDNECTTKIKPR
Sequence of Coagulation factor XI (P03951 388-625 limits assumed): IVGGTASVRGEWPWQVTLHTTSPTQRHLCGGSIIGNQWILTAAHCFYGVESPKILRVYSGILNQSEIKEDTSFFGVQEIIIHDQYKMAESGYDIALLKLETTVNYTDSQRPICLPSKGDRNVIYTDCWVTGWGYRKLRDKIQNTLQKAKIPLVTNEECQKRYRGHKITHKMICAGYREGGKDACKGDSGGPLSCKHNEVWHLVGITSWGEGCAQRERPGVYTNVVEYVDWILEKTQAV

As usually defined, the IC50 is the concentration that inhibits the measured activity by half. For `Cc1nnc(SCCn2c(Br)nc3c2c(=O)[nH]c(=O)n3C)s1`, the IC50 is > 50 µM.

On to `[O-][S+](NC1CCCCC1)C12CC3CC(CC(C3)C1)C2` (stereo unspecified), for which the concentration for half-maximal inhibition (IC50) is > 50 µM.

Compound `O=C(Oc1cncc(Cl)c1)c1ccco1` registered a half-inhibitory concentration (IC50) of 0.741 µM.

Regarding `Cc1cccc(NC(=O)c2cc(-n3c(O)ccc3O)ccc2Cl)n1`, the IC50 was > 50 µM.

For `CCc1cccc(NC(=O)Cc2ccc([N+](=O)[O-])cc2)c1`, the half-inhibitory concentration (IC50) is > 50 µM.

Consider `COc1ccc([N+](=O)[O-])cc1NC(=O)CC1S/C(=N\c2cccc(C)c2C)N(N=Cc2cccc(OC)c2OC)C1=O` (stereo unspecified), for which the half-inhibitory concentration (IC50) was > 50 µM.

Turning to `Cc1nc2ccccc2c(=O)n1NC(=O)c1cc(Br)ccc1Cl`, the 50% inhibitory concentration (IC50) is > 50 µM.

Regarding `COc1cccc(C(=O)OCCN2CCOCC2)c1`, the 50% inhibitory concentration (IC50) is > 50 µM.

As to `COc1ccc(C(=O)NN=Cc2cc3ccccc3[nH]c2=O)cc1`, the IC50 was > 50 µM.

As for `C=C(C)CNC(=S)Nc1cccc(N)n1`, the IC50 is > 50 µM.

Consider `CCNc1cc(N2CCNCC2)ccc1[N+](=O)[O-]`, for which the IC50 was > 50 µM.

Turning to `O=C(NCc1ccccc1)c1ccc(Cl)nc1`, the IC50 was > 50 µM.

For the compound `CCc1ccccc1-n1c(O)cc(=O)[nH]c1=O`, the half-maximal inhibitory concentration (IC50) is > 50 µM.

With `O=C(CSc1ncccn1)NN=Cc1cccc(OC2CSC2)c1`, the IC50 is > 50 µM.

With `COc1ccc(-c2n[nH]cc2C2N=C(N)Nc3nc4ccccc4n32)cc1` (stereo unspecified), the IC50 was > 50 µM.

As to `O=C(NN=C1CCCC1)c1ccccc1OCc1ccc(Cl)cc1`, the IC50 was > 50 µM.

Regarding `O=C(NNC1=NCCCCC1)Nc1cccc(Cl)c1`, the half-inhibitory concentration (IC50) is > 50 µM.

With `CCOC(=O)C(=O)N(Nc1ccc(C)cc1)c1ccc(C)cc1`, the IC50 is > 50 µM.

For the compound `CCOc1ccc(-c2c(C)[n+](-c3ccc(OCC)cc3)c3n2CCCCC3)cc1`, half-maximal inhibition (IC50) required 0.958 µM.

As for `CC(C)(C)C(=O)CSc1ncnc2c1cnn2-c1ccccc1`, the IC50 was > 50 µM.

For the compound `Cc1ccc(C(=O)C(=O)c2ccc(C)c(N)c2)cc1N`, the IC50 was > 50 µM.

`NS(=O)(=O)c1ccc(Cl)cc1[N+](=O)[O-]`: the 50% inhibitory concentration (IC50) is > 50 µM.

Regarding `Oc1cc(Sc2ccc(Cl)cc2)c(O)n1-c1ccc2c(c1)OCCO2`, the IC50 was > 50 µM.

Regarding `CC(C=NNC(=O)c1cc(-c2cccn2C)n[nH]1)=Cc1ccccc1`, the IC50 was > 50 µM.

`Cc1cc(C(=O)Cn2nc(C(=O)O)c3ccccc3c2=O)c(C)n1-c1cccc(C(F)(F)F)c1`: the IC50 was > 50 µM.

Regarding `COc1cc(CN=Nc2cc(C)nc(NS(=O)(=O)c3ccccc3)n2)ccc1O`, the IC50 was > 50 µM.

`CCc1ccc[n+](-c2[n-]c(=O)sc2C=NNC(N)=O)c1`: the half-inhibitory concentration (IC50) was > 50 µM.

On to `COc1ccc(S(=O)(=O)NCc2c(-c3ccccc3)noc2C)c(OC)c1`, for which the half-maximal inhibitory concentration (IC50) is > 50 µM.

Consider `CC(=O)c1ccc(NC(S)=Nc2cccc3cnccc23)cc1` [1-(4-acetylphenyl)-3-(5-isoquinolinyl)thiourea], for which the 50% inhibitory concentration (IC50) was > 50 µM.

`O=C(Nc1ccc(Cl)cc1)Nc1nc(-c2ccccc2O)cs1` [1-(4-chlorophenyl)-3-[4-(2-hydroxyphenyl)-1,3-thiazol-2-yl]urea]: the half-inhibitory concentration (IC50) is > 50 µM.

As to `Cc1ccc(C(=O)n2nc(-c3cccnc3)nc2N)cc1` [1-(4-methylbenzoyl)-3-(3-pyridinyl)-1H-1,2,4-triazol-5-amine], the IC50 was > 50 µM.

In the case of `CCn1c(C)nc2cc(C(=O)NN=C(C)c3ccc(OC)cc3O)ccc21` [1-ethyl-N'-[(1E)-1-(4-methoxy-6-oxidanylidene-cyclohexa-2,4-dien-1-ylidene)ethyl]-2-methyl-benzimidazole-5-carbohydrazide], the half-inhibitory concentration (IC50) was > 50 µM.

Regarding `N#CCCC1CCCC=C1N(Cc1ccccc1)C(=O)C(Cl)Cl` (stereo unspecified) [2,2-bis(chloranyl)-N-[6-(2-cyanoethyl)cyclohexen-1-yl]-N-(phenylmethyl)ethanamide], the IC50 is > 50 µM.

Consider `Cc1ccc(C)c(S(=O)(=O)ON2C(=O)c3ccccc3C2=O)c1` [2,5-dimethylbenzenesulfonic acid (1,3-dioxo-2-isoindolyl) ester], for which inhibition was half-maximal at 0.762 µM (IC50).

As to `O=C(Cn1c(-c2ccccn2)nc2ccccc21)NN=Cc1cccnc1` [2-(2-pyridin-2-ylbenzimidazol-1-yl)-N-(pyridin-3-ylmethylideneamino)acetamide], the IC50 was > 50 µM.

As to `CCn1nc(CC(=O)O)c2ccccc2c1=O` [2-(3-ethyl-4-oxidanylidene-phthalazin-1-yl)ethanoic acid], the IC50 is > 50 µM.

Take `Cc1sc2c(c1C)C(=O)NC(c1cccc(O)c1)N2` (stereo unspecified) [2-(3-hydroxyphenyl)-5,6-dimethyl-2,3-dihydrothieno[2,3-d]pyrimidin-4(1H)-one]: the IC50 was > 50 µM.

As to `CCN1CCN(CC(=O)Nc2cc(C)on2)CC1` [2-(4-ethylpiperazin-1-yl)-N-(5-methyl-1,2-oxazol-3-yl)acetamide;oxalic acid], the IC50 was > 50 µM.

Turning to `CN(Cc1ccon1)C(=O)CC1C(=O)NCCN1CC1CCCCC1` (stereo unspecified) [2-[1-(cyclohexylmethyl)-3-oxopiperazin-2-yl]-N-(isoxazol-3-ylmethyl)-N-methylacetamide], the IC50 was > 50 µM.

In the case of `CCOc1cc(CO)ccc1OCC(=O)N1CCCCC1` [2-[2-ethoxy-4-(hydroxymethyl)phenoxy]-1-(1-piperidinyl)ethanone], the IC50 was > 50 µM.

For the compound `CCOc1ccc(NC(=O)CN2C(=O)/C(=C3\SC(=S)N(C4CCS(=O)(=O)C4)C3=O)c3ccccc32)cc1` (stereo unspecified) [2-[(3Z)-3-[3-[1,1-bis(oxidanylidene)thiolan-3-yl]-4-oxidanylidene-2-sulfanylidene-1,3-thiazolidin-5-ylidene]-2-oxidanylidene-indol-1-yl]-N-(4-ethoxyphenyl)ethanamide;ethanoic acid], the half-maximal inhibitory concentration (IC50) was > 50 µM.

As to `O=C(Nc1ccc(Cl)cc1)Nc1ccccc1C(=O)NCc1ccco1` [2-[(4-chlorophenyl)carbamoylamino]-N-(furan-2-ylmethyl)benzamide], the IC50 is > 50 µM.

Consider `COc1ccc(CSc2nc(C)cc(C)c2S(C)(=O)=O)cc1` [2-[(4-methoxybenzyl)sulfanyl]-4,6-dimethyl-3-pyridinyl methyl sulfone], for which the IC50 was > 50 µM.

Take `CC(C)NC(=O)CSc1nc(-c2ccccc2)cs1` [2-[(4-phenyl-1,3-thiazol-2-yl)sulfanyl]-N-propan-2-yl-ethanamide]: the half-maximal inhibitory concentration (IC50) was > 50 µM.

Consider `CCOC(=O)COc1cc(O)c2c(=O)cc(-c3ccccc3)oc2c1` [2-[(5-hydroxy-4-oxo-2-phenyl-1-benzopyran-7-yl)oxy]acetic acid ethyl ester], for which the IC50 is > 50 µM.

In the case of `CC(C)[C@H](NC(=O)[C@H](CCCNC(=N)N)NC(=O)N[C@@H](Cc1ccccc1)C(=O)O)C(=O)N[C@H](C=O)CCCNC(=N)N` [2-[[[[(2S)-5-(diaminomethylideneamino)-1-[[(2S)-1-[[5-(diaminomethylideneamino)-1-oxopentan-2-yl]amino]-3-methyl-1-oxobutan-2-yl]amino]-1-oxopentan-2-yl]amino]-oxomethyl]amino]-3-phenylpropanoic acid] ({Phe-CO}-Arg-Val-Arg-aldehyde), inhibition was half-maximal at 3.81 µM (IC50).

Consider `N#Cc1ccsc1NC(=O)CN(Cc1ccccc1)Cc1ccccc1` [2-[bis(phenylmethyl)amino]-N-(3-cyano-2-thiophenyl)acetamide], for which the IC50 is > 50 µM.

`CS(=O)(=O)c1ccc(Cl)c(NC(=O)COC(=O)CNC(=O)c2ccccc2)c1` [2-benzamidoacetic acid [2-(2-chloro-5-methylsulfonylanilino)-2-oxoethyl] ester]: the IC50 was > 50 µM.

As for `O=C(c1cccn2c(=O)c3cc(Br)ccc3nc12)N1CCC2(CC1)OCCO2` [2-bromanyl-6-(1,4-dioxa-8-azaspiro[4.5]decan-8-ylcarbonyl)pyrido[2,1-b]quinazolin-11-one], the half-maximal inhibitory concentration (IC50) is > 50 µM.

For `CC(Cc1ccccc1)=NNC(=O)CNC(=O)c1ccccc1Cl` [2-chloro-N-[2-oxo-2-[2-(1-phenylpropan-2-ylidene)hydrazinyl]ethyl]benzamide], the IC50 was > 50 µM.

Consider `CC1=C(C(=O)OCCOc2ccccc2)C(c2ccsc2)NC(=O)N1C` (stereo unspecified) [2-phenoxyethyl 3,4-dimethyl-2-oxo-6-thiophen-3-yl-1,6-dihydropyrimidine-5-carboxylate], for which the half-inhibitory concentration (IC50) was > 50 µM.

As to `O=C(Oc1ccc2ccc(=O)oc2c1)c1cccs1` [2-thiophenecarboxylic acid (2-oxo-1-benzopyran-7-yl) ester], half-maximal inhibition (IC50) required 2.68 µM.

Take `Cc1cc(C)c(C)c(S(=O)(=O)ON2C(=O)c3ccccc3C2=O)c1C` [2-{[(2,3,5,6-tetramethylphenyl)sulfonyl]oxy}-1H-isoindole-1,3(2H)-dione]: the IC50 turned out to be 3.2 µM.

For `Cc1n[nH]c(C)c1CCC(=O)NN=Cc1c[nH]c2ccccc12` [3-(3,5-Dimethyl-1H-pyrazol-4-yl)-propionic acid [1-(1H-indol-3-yl)-meth-(E)-ylidene]-hydrazide], the concentration for half-maximal inhibition (IC50) is > 50 µM.

`S=C(NCCc1ccccc1)Nc1ccc(Br)cn1` [3-(5-bromopyridin-2-yl)-1-(2-phenylethyl)thiourea]: the IC50 is > 50 µM.

`Oc1cc(N2CCC(c3nc4ccccc4o3)CC2)c(O)n1-c1ccc(Cl)c(C(F)(F)F)c1` [3-[4-(1,3-benzoxazol-2-yl)piperidin-1-yl]-1-[4-chloranyl-3-(trifluoromethyl)phenyl]pyrrolidine-2,5-dione]: the IC50 is > 50 µM.

Turning to `Clc1ccccc1Cn1nnc2c(NCCN3CCOCC3)ncnc21` [3-[(2-chlorophenyl)methyl]-N-(2-morpholin-4-ylethyl)triazolo[4,5-d]pyrimidin-7-amine], the IC50 was > 50 µM.

As to `Nn1c(C2CCCCC2)nc2ccccc2c1=O` [3-azanyl-2-cyclohexyl-quinazolin-4-one], the IC50 is > 50 µM.

In the case of `CC(C)C(NC(=O)C(Cc1ccccc1)NC(=O)OCc1ccccc1)C(=O)O` (stereo not drawn) [3-methyl-2-[[1-oxo-3-phenyl-2-(phenylmethoxycarbonylamino)propyl]amino]butanoic acid] (Cbz-Phe-Val-OH; configuration not given here), the IC50 is > 50 µM.

As for `CN(Cc1ccccc1)c1nc2c(c(=O)[nH]c(=O)n2C)n1CCCSc1ncccn1` [3-methyl-8-[methyl-(phenylmethyl)amino]-7-(3-pyrimidin-2-ylsulfanylpropyl)purine-2,6-dione], the IC50 is > 50 µM.

Regarding `Oc1ccc(C=NN2CCN(C3c4ccccc4-c4ccccc43)CC2)c(O)c1` [4-({[4-(9H-fluoren-9-yl)-1-piperazinyl]imino}methyl)-1,3-benzenediol], the 50% inhibitory concentration (IC50) was > 50 µM.
